Results from patent publication US20230203060A1 (GENFLEET THERAPEUTICS (SHANGHAI) INC., priority 2020, published 2023).

system: phosphorylated ERK downstream of KRAS G12C in MIA PaCa2 cells; assay: Cell p-ERK detection experiment (HTRF) in MIA PaCa2; assay type: cell-based, human; settings: Homo sapiens, MIA PaCa-2, 2 h, MIA PaCa2 cells, 2 hours with compound, Advance ERK phospho-T202/Y204 HTRF kit; read-out: p-ERK IC50
Method in brief: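 KRAS G12C-mutant MIA PaCa2 cells (2.5E4 per well, overnight) exposed 2 h to a 3.16-fold compound dilution series at 0.1% DMSO. Lysates probed 4 h with HTRF antibodies to ERK phospho-T202/Y204; inhibition versus DMSO control and blank, IC50 by four-parameter fit.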

IC50	SMILES
22 nM	C=CC(=O)N1CCN2C(=O)c3c(N4C[C@@H](OC)C[C@@H]4C)nc(-c4c(O)cccc4F)c(Cl)c3OC[C@H]2C1 [Z260a, (6aR)-8-acryloyl-4-chloro-3-(2-fluoro-6-hydroxyphenyl)-1-((2S,4S)-4-methoxy-2-methylpyrrolidin-1-yl)-6,6a,7,8,9,10-hexahydro-12H-pyrazino[2,1-c]pyrido[3,4-f][1,4]oxazepin-12-one]
9 nM	C=CC(=O)N1CCN2C(=O)c3c(N4CC[C@@H](OC)C4(C)C)nc(-c4c(O)cccc4F)c(Cl)c3OC[C@H]2C1 (single isomer, unassigned) [Z241a-2]
33 nM	C=CC(=O)N1CCN2C(=O)c3c(N4CC[C@H](OC)C4(C)C)nc(-c4c(O)cccc4F)c(Cl)c3OC[C@H]2C1 (single isomer, unassigned) [Z241a-1]
30 nM	C=CC(=O)N1CCN2C(=O)c3c(N4C[C@H](N(C)C)C[C@@H]4C)nc(-c4c(O)cccc4F)c(Cl)c3OC[C@H]2C1 [Z237-1, (6aR)-8-acryloyl-4-chloro-1-((2S,4R)-4-(dimethylamino)-2-methylpyrrolidin-1-yl)-3-(2-fluoro-6-hydroxyphenyl)-6,6a,7,8,9,10-hexahydro-12H-pyrazino[2,1-c]pyrido[3,4-f][1,4]oxazepin-12-one]
85 nM	C=CC(=O)N1CCN2C(=O)c3c(N4CC[C@@H](N(C)C)C4(C)C)nc(-c4c(O)cccc4F)c(Cl)c3OC[C@H]2C1 (single isomer, unassigned) [Z360-1]
83 nM	C=CC(=O)N1CCN2C(=O)c3c(N4CC(C)(C)OC[C@@H]4C)nc(-c4c(O)cccc4F)c(Cl)c3OC[C@H]2C1 [Z276-1, (6aR)-8-acryloyl-4-chloro-3-(2-fluoro-6-hydroxyphenyl)-1-((S)-2,2,5-trimethylmorpholino)-6,6a,7,8,9,10-hexahydro-12H-pyrazino[2,1-c]pyrido[3,4-f][1,4]oxazepin-12-one]
23 nM	C=CC(=O)N1CCN2C(=O)c3c(N4C[C@@H](N(C)CCOC)C[C@@H]4C)nc(-c4c(O)cccc4F)c(Cl)c3OC[C@H]2C1 [Z358-1]

The next lines start with the compound.

SMILES	IC50
C=CC(=O)N1CCN2C(=O)c3c(Nc4c(C(C)C)ncnc4C(C)C)nc(-c4c(O)cccc4F)c(Cl)c3OC[C@H]2C1 [Z15, (6aR)-8-acryloyl-4-chloro-1-((4,6-diisopropylpyrimidin-5-yl)amino)-3-(2-fluoro-6-hydroxyphenyl)-6,6a,7,8,9,10-hexahydro-12H-pyrazino[2,1-c]pyrido[3,4-f][1,4]oxazepin-12-one]	65 nM
C=CC(=O)N1CCN2C(=O)c3c(N4CC(N(C)C5COC5)CC4(C)C)nc(-c4c(O)cccc4F)c(Cl)c3OC[C@H]2C1 (stereo partly drawn) [Z326, (6aR)-8-acryloyl-4-chloro-1-(2,2-dimethyl-4-(methyl(oxetan-3-yl)amino)pyrrolidin-1-yl)-3-(2-fluoro-6-hydroxyphenyl)-6,6a,7,8,9,10-hexahydro-12H-pyrazino[2,1-c]pyrido[3,4-f][1,4]oxazepin-12-one]	6 nM
C=CC(=O)N1CCN2C(=O)c3c(N4CC(N(C)CCOC)CC4(C)C)nc(-c4c(O)cccc4F)c(Cl)c3OCC2C1 (single isomer, unassigned) [Z296-1]	8 nM
C=CC(=O)N1CCN2C(=O)c3c(N4C[C@@H](O)CC4(C)C)nc(-c4c(O)ccc(Cl)c4F)c(F)c3OC[C@H]2C1 (single isomer, unassigned) [Z340-1]	59 nM
C=CC(=O)N1CCN2C(=O)c3c(N4CCN(C)C[C@@H]4C)nc(-c4c(F)ccc(Cl)c4O)c(Cl)c3OC[C@H]2C1 [Z342, (6aR)-8-acryloyl-4-chloro-3-(3-chloro-6-fluoro-2-hydroxyphenyl)-1-((S)-2,4-dimethylpiperazin-1-yl)-6,6a,7,8,9,10-hexahydro-12H-pyrazino[2,1-c]pyrido[3,4-f][1,4]oxazepin-12-one]	84 nM
C=CC(=O)N1CCN2C(=O)c3c(N4C[C@@H](N5CCOCC5)CC4(C)C)nc(-c4c(O)cccc4F)c(Cl)c3OC[C@H]2C1 (single isomer, unassigned) [Z297-2]	18 nM
C=CC(=O)N1CCN2C(=O)c3c(N4C[C@](C)(O)CC4(C)C)nc(-c4c(O)cccc4F)c(Cl)c3OC[C@H]2C1 (single isomer, unassigned) [Z243-2]	108 nM
